Assay results taken from ChEMBL document CHEMBL5518215, “Unlocking Antibacterial Potential: Key-Site-Based Regulation of Antibacterial Spectrum of Peptides” (J Med Chem, 2024).
Active and inactive are the calls of the source. The calls are words filed in the database; no cut-off is given here.

What was measured:
[1] = tested on: Escherichia coli; experiment: Antimicrobial activity against Escherichia coli K88 assessed as absence bacterial growth measured after 18 to 24 hrs incubation by NCCLS method; format: functional; conditions: time 18-24 hrs
[2] = Antimicrobial activity against Salmonella pullorum C7913 assessed as absence bacterial growth measured after 18 to 24 hrs incubation by NCCLS method; format: functional, Salmonella enterica subsp. enterica serovar Pullorum; conditions: Salmonella enterica, time 18-24 hrs
[3] = tested on: Pseudomonas aeruginosa; experiment: Antimicrobial activity against Pseudomonas aeruginosa 27853 assessed as absence bacterial growth measured after 18 to 24 hrs incubation by NCCLS method; format: functional; conditions: time 18-24 hrs
[4] = tested on: Acinetobacter baumannii; experiment: Antimicrobial activity against Acinetobacter baumannii 1.6769 assessed as absence bacterial growth measured after 18 to 24 hrs incubation by NCCLS method; format: functional; conditions: time 18-24 hrs
[5] = tested on: Enterococcus faecalis; experiment: Antimicrobial activity against Enterococcus faecalis 29212 assessed as absence bacterial growth measured after 18 to 24 hrs incubation by NCCLS method; format: functional; conditions: time 18-24 hrs
[6] = tested on: Bacillus cereus; experiment: Antimicrobial activity against Bacillus cereus 1.932 assessed as absence bacterial growth measured after 18 to 24 hrs incubation by NCCLS method; format: functional; conditions: time 18-24 hrs
[7] = tested on: Staphylococcus aureus; experiment: Antimicrobial activity against Staphylococcus aureus 29213 assessed as absence bacterial growth measured after 18 to 24 hrs incubation by NCCLS method; format: functional; conditions: time 18-24 hrs
[8] = tested on: Staphylococcus aureus; experiment: Antimicrobial activity against Staphylococcus aureus 29213 assessed as absence bacterial growth measured after 18 to 24 hrs incubation by NCCLS m; format: functional; conditions: time 18-24 hrs
[9] = tested on: Salmonella typhimurium; experiment: Antimicrobial activity against Salmonella typhimurium C7731 assessed as bacterial killing measured after 16 hrs incubation; format: functional, Salmonella enterica subsp. enterica serovar Typhimurium; conditions: Salmonella enterica
[10] = Antimicrobial activity against Salmonella pullorum C7913 assessed as bacterial killing measured after 16 hrs incubation; format: functional, Salmonella enterica subsp. enterica serovar Pullorum; conditions: Salmonella enterica
[11] = tested on: Bacillus cereus; experiment: Antimicrobial activity against Bacillus cereus 1.932 assessed as bacterial killing measured after 16 hrs incubation; format: functional
[12] = tested on: Staphylococcus aureus; experiment: Antimicrobial activity against Methicillin-resistant Staphylococcus aureus 43300 assessed as bacterial killing measured after 16 hrs incubation; format: functional
[13] = tested on: Staphylococcus aureus; experiment: Antimicrobial activity against Staphylococcus aureus 25923 assessed as bacterial killing measured after 16 hrs incubation; format: functional
[14] = tested on: Escherichia coli; experiment: Antimicrobial activity against Escherichia coli 25922 assessed as absence bacterial growth measured after 18 to 24 hrs incubation in presence of 50% serum by NCCLS method; format: functional; conditions: time 18-24 hrs
[15] = tested on: Escherichia coli; experiment: Antimicrobial activity against Escherichia coli 25922 assessed as absence bacterial growth measured after 18 to 24 hrs incubation in presence of 12.5% serum by NCCLS method; format: functional; conditions: time 18-24 hrs
[16] = Hemolytic activity in human RBC at effective concentration at 128 uM measured after 1 hr by microplate reader relative to control; format: toxicity, cell-based, Erythrocyte; conditions: human red blood cells (erythrocytes), read-out: Activity
[17] = tested on: Escherichia coli; experiment: Antimicrobial activity against Escherichia coli 25922 assessed as absence bacterial growth measured after 18 to 24 hrs incubation in presence of MgCl2 by NCCLS method; format: functional; conditions: time 18-24 hrs
[18] = tested on: Escherichia coli; experiment: Antimicrobial activity against Escherichia coli 25922 assessed as absence bacterial growth measured after 18 to 24 hrs incubation in presence of FeCl3 by NCCLS method; format: functional; conditions: time 18-24 hrs
[19] = Cytotoxicity against mouse RAW264.7 cells assessed as cell survival rate at 32 to 64 uM measured after 8 hrs by MTT assay relative to control; format: toxicity, cell-based; conditions: dose 32-64 µM, read-out: Activity
[20] = Cytotoxicity against mouse RAW264.7 cells assessed as cell survival rate measured after 8 hrs by MTT assay; format: toxicity, cell-based
[21] = Cytotoxicity against porcine IPEC-J2 cells assessed as cell survival rate measured after 8 hrs by MTT assay; format: toxicity, cell-based, Sus scrofa; conditions: pig
[22] = tested on: Escherichia coli; experiment: Antibacterial activity against Escherichia coli 25922 assessed as bactericidal rate by measuring reduction in bacterial count at 1 times MBC concentration measured at 15 secs by time-kill kinetic assay; format: functional; conditions: time 15 sec; 15 s
[23] = tested on: Staphylococcus aureus; experiment: Antibacterial activity against Staphylococcus aureus 29213 assessed as bactericidal rate by measuring reduction in bacterial count at 1 times MBC concentration measured at 15 secs by time-kill kinetic assay; format: functional; conditions: time 15 sec; 15 s
[24] = tested on: Escherichia coli; experiment: Antibacterial activity against Escherichia coli 25922 assessed as absence bacterial growth measured after 18 to 24 hrs incubation at pH 6 by NCCLS method; format: functional; conditions: time 18-24 hrs
[25] = tested on: Escherichia coli; experiment: Antibacterial activity against Escherichia coli 25922 assessed as absence bacterial growth measured after 4 hrs treated with H2O2; format: functional
[26] = tested on: Lipopolysaccharide (LPS); experiment: Binding affinity to Escherichia coli O111:B4 LPS assessed as fluorescence intensity measured after 1 hr by spectrophotometry; format: subcellular; conditions: dose 2-16 µM
[27] = tested on: Escherichia coli; experiment: Outer membrane permeabilization/cell wall in Escherichia coli 25922 assessed as fluorescence intensity of NPN measured at 2 to 128 uM after 1 hr by spectrophotometry; format: functional, organism-based; conditions: dose 2-128 µM
[28] = tested on: Staphylococcus aureus; experiment: Outer membrane permeabilization/cell wall in Staphylococcus aureus 29213 assessed as fluorescence intensity of NPN measured at 2 to 128 uM after 1 hr by spectrophotometry; format: functional, organism-based; conditions: dose 2-128 µM
[29] = tested on: Escherichia coli; experiment: Inhibition of respiratory chain dehydrogenase activity in mid-log phase Escherichia coli 25922 measured after 4 hrs by Red-tetraazoline based spectrophotometry assay
[30] = tested on: Cell membrane; experiment: Induction of cytoplasmic membrane disruption in Staphylococcus aureus 29213 assessed as increase in fluorescence intensity measured upto 30 mins by DiSC3-5 probe based assay; format: cell membranes; conditions: dose 2-64 µM
[31] = tested on: Cell membrane; experiment: Induction of membrane disruption in Escherichia coli 25922 assessed as increase in extracellular ATP level at 4 to 32 uM measured after 1 hr; format: cell membranes; conditions: dose 4-32 µM
[32] = tested on: Staphylococcus aureus; experiment: Induction of morphological changes in Staphylococcus aureus 29213 assessed as loose distribution of cellular contents by using transmission electron microscopy; format: functional, organism-based
[33] = tested on: DNA; experiment: Binding affinity to DNA in Staphylococcus aureus 29213 incubated for 1 hr by electrophoresis; format: nucleic-acid assay

In the case of H-GKLWLKAGKLWLKGGKLWLKG-NH2, the MIC [1] is reported as 0.5 µM, the MIC [2] is reported as 1 µM and the MIC [3] is reported as 4 µM. For the same substance, the MIC [4] was 2 µM, the MIC [5] was 4 µM and the MIC [6] was 2 µM. For the same substance, the MIC [7] was 4 µM, the MIC [8] was 4 µM and the MBC [9] was 32 µM. For the same substance, the MBC [10] was 1 µM, the MBC [11] was 2 µM and the MBC [12] was 4 µM. The MBC [13] was 4 µM, the MIC [14] was > 32 µM and the MIC [15] was 16 µM. The hemolysis at 1 h, 128 µM [16] was < 10%, the MIC [17] was 8 µM and the MIC [18] was 2 µM. For the same substance, the viability at 8 h, up to 64 µM [19] was 60%, the IC50 at 8 h [20] was > 64 µM and the IC50 at 8 h [21] was > 64 µM. The “inhibition (INH)” value [22] was 99.99%, the “inhibition (INH)” value [23] was 99.99% and the MIC [24] was 2 µM. For the same substance, the MIC [25] was 2 µM, the Activity [26] was “Dose-Dependent Effect” and the permeability [27] was “Permeable”. For the same substance, the permeability [28] was “Permeable”, the inhibition [29] was “Active” and the Activity [30] was “Dose-Dependent Effect”. The Activity [31] was “Active”, the Activity [32] was “Active” and the Activity [33] was “Active”.
